Data published in patent US20110008469A1, “ANTIMICROBIAL COMPOSITION AND METHODS AND APPARATUS FOR USE THEREOF” (FLORIDA GULF COAST UNIVERSITY, priority 2009, published 2011).

How the values were obtained:
V. fischeri = V. fischeri luminescence assay (killing); assay type: cell-based, Vibrio fischeri; settings: for killing by biocide with varied detergent: 1 mM NH3, 0.5% EtOH; for decrease in luminescence: 2 mM; for killing by biocide with varied alcohol: 1 mM NH3, 0.05 mM CTAB; for effect of ethanol on V. fischeri luminescence: 1% ethanol alone
Method: V. fischeri was grown overnight until the culture reached log phase and were brightly luminescent. Since bacterial luminescence is an ATP driven event, light emission is directly related to the metabolism and energy charge state of the organism. […] Samples at given concentrations were added to V. fischeri in a 24 well plate. A small amount was placed in a 96 well plate, agitated, and the luminescence was read in a TECAN well plate reader. For all figures, the total time period that V. fischeri was exposed to each biocide or component was between five and fifteen minutes. […] The right side bars represent a final pH of 9. Low readings indicate killing. […] The purpose of this component is to fluidize the cell membrane to collapse the pH gradient.

[1] = Effectiveness or lethality of biocide composition with substituted components (test not described)
[2] = 0.05 mM detergent, pH 9.0 (FIG. 6)

| Molecule | killing by biocide with varied detergent (V. fischeri; [2]) | killing by biocide with varied detergent (V. fischeri; detergent raised to 1 mM, pH 9) | effectiveness as component in the composition and method of the invention [1] | killing by biocide with varied alcohol (V. fischeri; 0.5% alcohol, pH 9.0 (FIG. 7)) | killing by biocide with varied alcohol (V. fischeri; alcohol raised to 1%, pH 9) | also measured |
| --- | --- | --- | --- | --- | --- | --- |
| CCCCCCCCCCCCCCCC[N+](C)(C)C.[Br-] [CTAB, Cetyl trimethylammonium bromide] | some degree of killing | kill effectively |  |  |  |  |
| CCCCCCCCCCCCCCCC[N+](C)(C)C.[Cl-] [CTAC, Cetyl trimetylammonium chloride] | some degree of killing | kill effectively |  |  |  |  |
| CCCCCCCCCCCCCCCCN [HDA, Hexadecylamine] |  |  |  |  |  | decrease in luminescence (V. fischeri; pH 7.5): 11%; decrease in luminescence (V. fischeri; pH 9): 29%; effect of HDA on V. fischeri luminescence (V. fischeri; HDA alone 0-2 mM, pH 7.5 (FIG. 2)): little to no effect; effect of HDA on V. fischeri luminescence (V. fischeri; HDA alone, higher concentrations (up to 2 mM), pH 9 (FIG. 2)): slight effect |
| CCCCCCCCCCCCOS(=O)(=O)[O-].[Na+] [SDS, Sodium dodecyl sulfate] | some degree of killing | kill effectively |  |  |  |  |
| CCCCCCCCCCCCCC[N+](C)(C)C.[Br-] [TTAB, Tetradecyl trimethyl ammonium bromide] | some degree of killing | kill effectively |  |  |  |  |
| CCCCCCCCCCCCCC[N+](C)(C)C.[Cl-] [TTAC, Tetradecyl trimethyl ammonium chloride] | some degree of killing | kill effectively |  |  |  |  |
| N [ammonia] |  |  |  |  |  | effect of ammonia on V. fischeri luminescence (V. fischeri; ammonia alone, 50 mM or lower, pH 7 or 9, versus pH adjusted H2O control (FIG. 3)): no difference from the control |
| Nc1ccccc1 [aniline] |  |  |  |  |  | lethality of biocide with aniline substituted for HAD ([1]; aniline as second hydroxophore component): very lethal |
| OCc1ccccc1 [benzyl alcohol] |  |  | effective | some degree of killing | kill effectively |  |
| CCO [ethanol] |  |  |  | some degree of killing | kill effectively | effect of ethanol on V. fischeri luminescence (V. fischeri; final pH 7, 5-15 min exposure (FIG. 1)): damage; effect of ethanol on V. fischeri luminescence (V. fischeri; final pH 9, 5-15 min exposure (FIG. 1)): damage; higher luminescence reading at pH 9 than same concentration at pH 7 (V. fischeri; 3% ethanol, pH 9 versus pH 7): 40% |
| CO [methanol] |  |  | effective | some degree of killing | kill effectively |  |
| CCCO [propanol] |  |  | effective | some degree of killing | kill effectively |  |
| butanol |  |  | effective | some degree of killing | kill effectively |  |
